Test results taken from patent US20230241167A1, “Use of Caveolin-1 Scaffolding Domain Peptides for Treating Disease and Disorders” (MUSC Foundation for Research Development, priority 2020, published 2023).
Square brackets hold non-standard residues; d marks the D form. Ends that are not written are not given here. Peptide text beside a SMILES is read from it.

Tests used:
[1] = system: bleomycin-treated mice; assay: Bleomycin-induced lung and skin fibrosis, treatments delivered by pump; format: in vivo; settings: for bleomycin-induced lung fibrosis (Ashcroft score): treatment by pump over two weeks after one week bleomycin, n=6
Protocol: Experiments were conducted to examine the effect of unmodified CSD subdomains on lung and skin fibrosis. […] Pumps containing bleomycin or saline vehicle were implanted subcutaneously into mice. After one week, the pumps had emptied and were replaced with pumps designed to empty over two weeks containing the indicated treatments (n=6 per group). After these two weeks, the mice were sacrificed.
Skin in the vicinity of the pump outlet was harvested for measurement of the thickness of the dermis and the intradermal fat. ^^^p<0.001 for Saline/Vehicle vs Bleo/Vehicle. ***p<0.001, **p<0.01, *p<0.05 for Bleo/Vehicle vs Bleo/Peptide Treatments.

[2] = system: Ang II-infused mice; assay: Angiotensin II-induced congestive heart failure (CHF) model; format: in vivo; settings: for suppression of AngII-induced fibrosis in the heart (Col I deposition and HSP47 level) / suppression of AngII-induced microvascular leakage in the heart (IgG heavy chain level in the tissue): Western blot; for overall effectiveness of domains in the CHF model (summary of FIGS. 1-7): FIG. 8; for suppression of the effects of AngII on Heart Weight/Body Weight (HW/BW) ratio: young mice (3 months) infused with Ang II two weeks
Protocol: FIG. 1 provides an overview of an experiment using Full-Length CSD, 82-89, 88-95, and 94-101 (SEQ ID NO:1, SEQ ID NO:2, SEQ ID NO:3, and SEQ ID NO:4 respectively).
Young mice (3 months old) infused with Ang II or vehicle for two weeks received daily i.p. injections of CSD, the indicated subdomains or scrambled CSD (0.8 μmol/kg). Mice were evaluated by Echocardiography for changes in posterior wall thickness (pWTh), fractional shortening (FS), cardiac output (CO), ejection fraction (EF), and isovolumic relaxation time (IVRT). Significant changes are shown as ***p<0.001 for Sham+Veh vs AngII+Veh. Significant suppression of AngII-induced changes is shown as ^p<0.05, ^^p<0.01, and ^^^p<0.001 for AngII+Veh vs AngII+CSD or AngII+CSD subdomains. The number of mice used in each treatment are shown in the HW/BW data.
Young mice (3 months old) infused with Ang II or vehicle for two weeks received daily i.p. injections of the indicated subdomains of CSD. The results of a typical experiment for Col I and HSP47 (FIG. 4) and for microvascular leakage (FIG. 5) are shown in Western blots (2 to 3 mice per group). The data are quantified below (n=4). Significant changes are shown as *p<0.05 and **p<0.01 for Sham+Veh vs Ang II+Veh. Significant suppression of Ang II-induced changes by subdomains are shown as ^p<0.05, […], and ^^^p<0.001 for Ang II+Veh vs Ang II+CSD subdomains.
Young mice (3 months old) infused with Ang II or vehicle for two weeks received daily i.p. injections of W82-89. IgG heavy chain (IgGH) leakage and Col I accumulation are shown in Western blots. The actin loading control is present twice because IgGH was analyzed in the supernatant fraction of heart homogenate while Col I is found in the pellet fraction. In the quantitation (n=4), significant changes are shown as **p<0.01 and ***p<0.001 for Sham+Veh vs Ang II+Veh and ^^p<0.01 and ^^^p<0.001 for reversal of AngII-induced changes by W82-89.

[3] = system: bleomycin-treated mice; assay: Bleomycin-induced lung and skin fibrosis, daily i.p. WCSD; format: in vivo
Protocol: Pumps containing bleomycin or saline vehicle were implanted subcutaneously into mice. After one week, the pumps had emptied. In addition, mice were injected i.p. daily as indicated, then sacrificed on day 22. All groups contained 4 mice.
Fibrocytes (CD45+/Col I+ cells) were quantified by Flow Cytometry. ECM proteins (Col I, Tenascin C), myofibroblast markers (HSP47, ASMA), and microvascular leakage (IgG Heavy Chain that remained in the tissue after perfusion) were quantified by Western blotting (n=4). Western blot data were quantified densitometrically following normalization to an actin loading control. The value in Saline treated mice was set to 1.0 Arbitrary Unit. ^^p<0.01, ^p<0.05 for Saline/Vehicle vs Bleo/Vehicle; *p<0.05 for Bleo/Vehicle vs Bleo/WCSD.

[4] = target: PDGFRα (Homo sapiens, UniProt P16234); assay: Inhibition of purified kinases; settings: purified kinase
[5] = target: PDGFRβ (Homo sapiens, UniProt P09619); assay: Inhibition of purified kinases; settings: purified kinase
Chain of PDGFRβ (P09619 33-1106, species assumed): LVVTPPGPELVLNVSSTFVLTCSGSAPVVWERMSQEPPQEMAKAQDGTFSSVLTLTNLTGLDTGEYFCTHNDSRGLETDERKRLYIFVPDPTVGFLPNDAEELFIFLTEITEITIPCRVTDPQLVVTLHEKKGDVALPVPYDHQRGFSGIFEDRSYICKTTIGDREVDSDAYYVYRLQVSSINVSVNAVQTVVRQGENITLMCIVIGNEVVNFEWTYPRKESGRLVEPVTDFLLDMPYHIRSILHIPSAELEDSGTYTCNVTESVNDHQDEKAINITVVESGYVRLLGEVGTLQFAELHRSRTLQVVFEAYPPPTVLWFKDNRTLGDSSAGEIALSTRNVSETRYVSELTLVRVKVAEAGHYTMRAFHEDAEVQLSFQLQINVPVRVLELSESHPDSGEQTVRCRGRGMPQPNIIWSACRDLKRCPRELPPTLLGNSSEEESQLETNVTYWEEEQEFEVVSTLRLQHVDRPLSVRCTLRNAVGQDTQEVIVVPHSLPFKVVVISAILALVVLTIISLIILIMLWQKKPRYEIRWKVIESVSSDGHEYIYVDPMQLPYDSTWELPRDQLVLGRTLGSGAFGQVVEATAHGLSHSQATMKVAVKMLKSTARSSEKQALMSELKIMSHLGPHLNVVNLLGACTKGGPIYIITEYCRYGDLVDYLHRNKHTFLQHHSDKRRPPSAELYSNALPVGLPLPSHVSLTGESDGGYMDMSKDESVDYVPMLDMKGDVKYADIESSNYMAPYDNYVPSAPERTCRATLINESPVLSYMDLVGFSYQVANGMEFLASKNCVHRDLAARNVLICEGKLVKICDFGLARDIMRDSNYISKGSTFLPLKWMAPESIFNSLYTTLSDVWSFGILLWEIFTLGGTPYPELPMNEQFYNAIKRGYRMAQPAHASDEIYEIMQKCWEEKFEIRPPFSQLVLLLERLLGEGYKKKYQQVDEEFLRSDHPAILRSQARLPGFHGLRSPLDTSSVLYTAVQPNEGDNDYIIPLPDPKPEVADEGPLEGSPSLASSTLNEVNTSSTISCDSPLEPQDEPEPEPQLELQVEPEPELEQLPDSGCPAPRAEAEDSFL

[6] = target: T1, TGFβR1 (Homo sapiens, UniProt P36897); assay: Inhibition of purified kinases; format: biochemical; settings: purified kinase; nintedanib worked at much lower concentrations
T1 sequence (P36897 34-503): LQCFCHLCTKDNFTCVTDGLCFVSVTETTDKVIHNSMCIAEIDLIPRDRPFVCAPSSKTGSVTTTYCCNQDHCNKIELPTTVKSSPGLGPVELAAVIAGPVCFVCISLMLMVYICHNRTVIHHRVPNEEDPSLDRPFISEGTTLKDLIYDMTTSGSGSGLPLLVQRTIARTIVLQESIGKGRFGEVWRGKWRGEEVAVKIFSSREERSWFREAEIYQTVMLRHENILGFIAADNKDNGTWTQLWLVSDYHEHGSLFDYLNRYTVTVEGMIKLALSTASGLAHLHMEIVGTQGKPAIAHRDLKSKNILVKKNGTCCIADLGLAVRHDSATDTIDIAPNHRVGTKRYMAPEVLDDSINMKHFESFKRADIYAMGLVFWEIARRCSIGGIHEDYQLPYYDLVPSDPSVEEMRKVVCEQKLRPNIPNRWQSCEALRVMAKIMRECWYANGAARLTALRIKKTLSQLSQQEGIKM

[7] = target: cMet (Homo sapiens, UniProt P08581); assay: Inhibition of purified kinases; format: biochemical; settings: purified kinase
Chain of cMet (P08581 25-1390): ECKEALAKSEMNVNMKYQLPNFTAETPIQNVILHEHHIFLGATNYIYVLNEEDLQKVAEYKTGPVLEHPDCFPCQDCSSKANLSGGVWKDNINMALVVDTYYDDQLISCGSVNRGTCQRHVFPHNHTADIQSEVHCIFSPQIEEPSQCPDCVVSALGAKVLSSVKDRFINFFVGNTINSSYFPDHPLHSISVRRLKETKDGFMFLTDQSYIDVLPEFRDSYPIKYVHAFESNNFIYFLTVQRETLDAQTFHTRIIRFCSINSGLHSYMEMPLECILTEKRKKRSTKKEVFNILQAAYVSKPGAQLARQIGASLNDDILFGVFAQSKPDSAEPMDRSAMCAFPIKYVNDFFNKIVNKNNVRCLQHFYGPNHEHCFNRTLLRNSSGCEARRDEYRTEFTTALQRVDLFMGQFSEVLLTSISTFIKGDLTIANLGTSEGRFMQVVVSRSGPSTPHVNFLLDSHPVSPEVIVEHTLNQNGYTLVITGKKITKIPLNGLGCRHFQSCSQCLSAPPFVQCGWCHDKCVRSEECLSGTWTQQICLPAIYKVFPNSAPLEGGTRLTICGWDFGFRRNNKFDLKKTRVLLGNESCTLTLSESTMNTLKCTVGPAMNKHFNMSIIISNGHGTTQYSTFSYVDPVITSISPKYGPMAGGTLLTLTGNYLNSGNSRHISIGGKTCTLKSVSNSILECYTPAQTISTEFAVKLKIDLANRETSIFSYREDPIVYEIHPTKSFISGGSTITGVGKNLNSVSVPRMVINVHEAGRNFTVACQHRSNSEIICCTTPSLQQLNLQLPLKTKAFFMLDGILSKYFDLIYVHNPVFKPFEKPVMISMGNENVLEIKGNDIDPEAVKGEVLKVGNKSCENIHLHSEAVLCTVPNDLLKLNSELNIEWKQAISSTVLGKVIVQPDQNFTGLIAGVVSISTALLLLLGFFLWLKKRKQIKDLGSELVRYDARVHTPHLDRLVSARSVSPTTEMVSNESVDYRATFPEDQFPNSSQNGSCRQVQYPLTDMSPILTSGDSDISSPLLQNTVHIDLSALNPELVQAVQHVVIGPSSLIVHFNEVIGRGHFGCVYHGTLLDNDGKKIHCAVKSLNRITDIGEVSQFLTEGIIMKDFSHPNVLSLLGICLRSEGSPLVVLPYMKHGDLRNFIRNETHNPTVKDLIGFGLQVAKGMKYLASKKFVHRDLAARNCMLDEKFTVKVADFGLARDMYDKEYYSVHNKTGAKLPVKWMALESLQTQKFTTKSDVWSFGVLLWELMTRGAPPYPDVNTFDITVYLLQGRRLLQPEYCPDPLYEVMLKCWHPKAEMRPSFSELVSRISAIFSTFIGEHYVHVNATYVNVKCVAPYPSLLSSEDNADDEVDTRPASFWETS

[8] = target: T2, PKCε (Homo sapiens, UniProt Q02156); assay: Inhibition of purified kinases; format: biochemical; settings: purified kinase
T2 sequence (Q02156 1-737): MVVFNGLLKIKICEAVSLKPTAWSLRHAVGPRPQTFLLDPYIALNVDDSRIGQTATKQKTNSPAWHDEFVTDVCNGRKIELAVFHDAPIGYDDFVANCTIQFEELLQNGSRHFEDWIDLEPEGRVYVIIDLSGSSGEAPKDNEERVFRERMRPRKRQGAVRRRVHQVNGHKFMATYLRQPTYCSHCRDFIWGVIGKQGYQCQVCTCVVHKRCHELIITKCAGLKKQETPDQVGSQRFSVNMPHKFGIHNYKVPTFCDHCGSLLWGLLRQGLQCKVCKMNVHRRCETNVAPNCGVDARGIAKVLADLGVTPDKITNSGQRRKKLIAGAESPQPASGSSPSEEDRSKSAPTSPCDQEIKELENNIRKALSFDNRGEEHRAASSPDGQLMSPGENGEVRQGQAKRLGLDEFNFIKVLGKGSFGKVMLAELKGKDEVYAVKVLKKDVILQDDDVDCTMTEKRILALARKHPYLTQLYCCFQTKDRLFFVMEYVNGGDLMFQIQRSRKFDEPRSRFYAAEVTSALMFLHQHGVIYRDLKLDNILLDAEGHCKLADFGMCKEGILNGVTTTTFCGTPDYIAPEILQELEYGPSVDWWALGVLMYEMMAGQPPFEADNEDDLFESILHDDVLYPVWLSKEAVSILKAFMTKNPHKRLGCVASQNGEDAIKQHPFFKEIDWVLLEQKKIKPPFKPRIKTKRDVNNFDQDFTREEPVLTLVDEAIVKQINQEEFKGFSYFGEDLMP

[9] = target: PKCα (Homo sapiens, UniProt P17252); assay: Inhibition of purified kinases; format: biochemical; settings: purified kinase
[10] = target: VEGFR3 (Homo sapiens, UniProt P35916); assay: Inhibition of purified kinases; format: biochemical; settings: purified kinase
[11] = target: VEGFR1 (Homo sapiens, UniProt P17948); assay: Inhibition of purified kinases; format: biochemical; settings: purified kinase
Chain of VEGFR1 (P17948 27-1338, species assumed): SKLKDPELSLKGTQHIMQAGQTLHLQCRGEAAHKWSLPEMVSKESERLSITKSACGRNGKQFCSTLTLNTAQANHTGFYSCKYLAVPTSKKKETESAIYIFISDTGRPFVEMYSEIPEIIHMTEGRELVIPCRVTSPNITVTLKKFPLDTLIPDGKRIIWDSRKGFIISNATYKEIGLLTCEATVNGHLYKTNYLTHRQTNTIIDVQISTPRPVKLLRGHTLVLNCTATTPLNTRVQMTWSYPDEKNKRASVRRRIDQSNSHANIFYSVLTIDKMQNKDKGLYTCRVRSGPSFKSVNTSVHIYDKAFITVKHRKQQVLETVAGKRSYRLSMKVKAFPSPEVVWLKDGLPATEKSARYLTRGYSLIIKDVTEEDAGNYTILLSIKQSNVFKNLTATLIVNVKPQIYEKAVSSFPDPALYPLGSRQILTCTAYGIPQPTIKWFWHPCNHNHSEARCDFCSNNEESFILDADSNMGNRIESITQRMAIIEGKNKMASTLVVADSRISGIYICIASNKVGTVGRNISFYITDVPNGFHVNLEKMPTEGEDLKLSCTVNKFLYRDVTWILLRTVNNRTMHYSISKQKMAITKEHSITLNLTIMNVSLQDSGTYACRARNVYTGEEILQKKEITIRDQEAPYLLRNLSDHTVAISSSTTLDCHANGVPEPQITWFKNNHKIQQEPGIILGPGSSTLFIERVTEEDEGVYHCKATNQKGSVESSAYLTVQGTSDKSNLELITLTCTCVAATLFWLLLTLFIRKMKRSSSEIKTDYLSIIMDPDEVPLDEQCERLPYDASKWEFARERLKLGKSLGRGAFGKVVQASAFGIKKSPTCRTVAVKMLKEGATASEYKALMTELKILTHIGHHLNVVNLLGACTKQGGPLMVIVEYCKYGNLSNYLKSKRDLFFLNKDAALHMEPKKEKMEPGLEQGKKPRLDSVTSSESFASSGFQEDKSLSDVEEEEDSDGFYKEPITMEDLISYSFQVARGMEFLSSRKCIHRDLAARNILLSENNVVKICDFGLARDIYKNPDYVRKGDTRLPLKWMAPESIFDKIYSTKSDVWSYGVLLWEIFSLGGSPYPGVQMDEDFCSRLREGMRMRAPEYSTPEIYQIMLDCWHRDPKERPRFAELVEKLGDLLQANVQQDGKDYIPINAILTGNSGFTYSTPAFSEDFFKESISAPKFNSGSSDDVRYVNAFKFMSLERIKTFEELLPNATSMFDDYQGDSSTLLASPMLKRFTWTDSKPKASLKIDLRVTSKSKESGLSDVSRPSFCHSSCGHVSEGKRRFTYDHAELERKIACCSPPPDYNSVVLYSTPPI

[12] = target: VEGFR2 (Homo sapiens, UniProt P35968); assay: Inhibition of purified kinases; format: biochemical; settings: purified kinase; nintedanib worked at much lower concentrations
Chain of VEGFR2 (P35968 20-1356, species assumed): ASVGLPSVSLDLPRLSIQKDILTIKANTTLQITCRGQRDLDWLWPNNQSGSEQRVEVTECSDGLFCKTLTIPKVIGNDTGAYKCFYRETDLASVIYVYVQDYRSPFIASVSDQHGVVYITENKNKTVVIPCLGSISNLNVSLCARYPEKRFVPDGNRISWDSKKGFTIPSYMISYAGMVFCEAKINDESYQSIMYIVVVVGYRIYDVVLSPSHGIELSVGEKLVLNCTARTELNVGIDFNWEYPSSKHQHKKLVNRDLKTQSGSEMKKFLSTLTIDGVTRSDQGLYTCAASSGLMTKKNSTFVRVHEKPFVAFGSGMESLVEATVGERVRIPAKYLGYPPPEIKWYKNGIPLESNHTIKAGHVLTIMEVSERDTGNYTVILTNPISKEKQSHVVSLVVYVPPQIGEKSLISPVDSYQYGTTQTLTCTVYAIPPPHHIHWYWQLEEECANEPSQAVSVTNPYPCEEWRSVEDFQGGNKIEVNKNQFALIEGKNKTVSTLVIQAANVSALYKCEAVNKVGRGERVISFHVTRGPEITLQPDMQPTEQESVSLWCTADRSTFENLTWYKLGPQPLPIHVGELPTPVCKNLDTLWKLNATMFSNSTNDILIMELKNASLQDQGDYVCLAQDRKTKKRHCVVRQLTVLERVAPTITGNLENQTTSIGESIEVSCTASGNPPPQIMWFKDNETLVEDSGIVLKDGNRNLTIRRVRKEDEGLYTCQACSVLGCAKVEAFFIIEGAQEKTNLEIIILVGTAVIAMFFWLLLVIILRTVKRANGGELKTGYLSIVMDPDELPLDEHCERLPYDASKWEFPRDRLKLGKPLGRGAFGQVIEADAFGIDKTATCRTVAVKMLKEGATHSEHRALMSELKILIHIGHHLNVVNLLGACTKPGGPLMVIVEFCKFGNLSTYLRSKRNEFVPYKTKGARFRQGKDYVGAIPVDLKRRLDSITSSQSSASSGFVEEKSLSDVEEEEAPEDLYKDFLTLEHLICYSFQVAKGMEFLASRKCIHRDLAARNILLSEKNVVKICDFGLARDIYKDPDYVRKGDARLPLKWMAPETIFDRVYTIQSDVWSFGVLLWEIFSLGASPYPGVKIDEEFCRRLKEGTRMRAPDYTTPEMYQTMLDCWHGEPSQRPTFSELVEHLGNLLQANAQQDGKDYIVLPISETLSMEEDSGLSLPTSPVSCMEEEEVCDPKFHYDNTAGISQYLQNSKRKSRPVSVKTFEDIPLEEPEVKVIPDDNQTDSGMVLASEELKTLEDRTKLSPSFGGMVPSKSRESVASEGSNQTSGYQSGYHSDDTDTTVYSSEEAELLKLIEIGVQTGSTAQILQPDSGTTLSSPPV

[13] = target: Src (Homo sapiens, UniProt P12931); assay: Inhibition of purified kinases; format: biochemical; settings: purified kinase; nintedanib worked at much lower concentrations
[14] = young mice infused with Ang II two weeks, daily i.p. injections, echocardiography

Compound: 82-89: CSD subdomain DGIWKASF-NH2
- activity across all readouts of the bleomycin model (lung, skin, monocyte migration) ([1]; Example 4 summary): most active of the subdomains tested
- bleomycin-induced lung fibrosis (Ashcroft score) [1]: suppression
- suppression of AngII-induced fibrosis in the heart (Col I deposition and HSP47 level) ([2]; daily i.p. injections): significant beneficial effect
- suppression of AngII-induced microvascular leakage in the heart (IgG heavy chain level in the tissue) ([2]; daily i.p. injections): almost completely suppressed
- overall effectiveness of domains in the CHF model (summary of FIGS. 1-7) [2]: active
- suppression of the effects of AngII on Heart Weight/Body Weight (HW/BW) ratio ([2]; daily i.p. injections): essentially equally effective as 88-95
- suppression of the effects of AngII on Ejection Fraction (EF), Fractional Shortening (FS), Isovolumic Relaxation Time (IVRT) [2, 14]: significant beneficial effect

Compound: 88-95: CSD subdomain SFTTFTVT-NH2
- bleomycin-induced lung fibrosis (Ashcroft score) [1]: suppression
- suppression of AngII-induced fibrosis in the heart (Col I deposition and HSP47 level) ([2]; daily i.p. injections): most effective CSD subdomain
- suppression of AngII-induced microvascular leakage in the heart (IgG heavy chain level in the tissue) ([2]; daily i.p. injections): almost completely suppressed
- overall effectiveness of domains in the CHF model (summary of FIGS. 1-7) [2]: most effective Dimethyl sulfoxide (DMSO)-solubilized domain tested
- suppression of the effects of AngII on Heart Weight/Body Weight (HW/BW) ratio ([2]; daily i.p. injections): most effective CSD subdomain
- suppression of the effects of AngII on Ejection Fraction (EF), Fractional Shortening (FS), Isovolumic Relaxation Time (IVRT) [2, 14]: most effective CSD subdomain
- suppression of the effects of AngII on Left Ventricle (LV) Mass and Posterior Wall Thickness (pWTh) [2, 14]: most effective CSD subdomain

Compound: 94-101: CSD subdomain VTKYWFYR-NH2
- bleomycin-induced lung fibrosis (Ashcroft score) [1]: suppression

Compound: CC[C@H](C)[C@H](NC(=O)CNC(=O)[C@H](CC(=O)O)NC(=O)[C@@H](CCCCN)NC(=O)[C@@H](CCCCN)NC(C)=O)C(=O)N[C@@H](Cc1c[nH]c2ccccc12)C(=O)N[C@@H](CCCCN)C(=O)N[C@@H](C)C(=O)N[C@@H](CO)C(=O)N[C@@H](Cc1ccccc1)C(=O)N[C@H](C(=O)N[C@H](C(=O)N[C@@H](Cc1ccccc1)C(=O)N[C@H](C(=O)N[C@H](C(=O)N[C@H](C(=O)N[C@@H](CCCCN)C(=O)N[C@@H](Cc1ccc(O)cc1)C(=O)N[C@@H](Cc1c[nH]c2ccccc12)C(=O)N[C@@H](Cc1ccccc1)C(=O)N[C@@H](Cc1ccc(O)cc1)C(=O)N[C@@H](CCCNC(=N)N)C(=O)N[C@H](CCCCN)C(=O)N[C@H](CCCCN)C(N)=O)[C@@H](C)O)C(C)C)[C@@H](C)O)[C@@H](C)O)[C@@H](C)O [WCSD] (Ac-[dK][dK]DGIWKASFTTFTVTKYWFYR[dK][dK]-NH2)
- fibrocytes (CD45+/Col I+ cells) in lung ([3]; Flow Cytometry): almost completely suppressed by WCSD down to the levels in control, saline-treated mice
- bleomycin-induced loss of the transdermal adipose layer in the skin ([3]; WCSD treatment beginning on day 8): suppresses the almost complete loss of the transdermal adipose layer
- ECM proteins (Col I, Tenascin C) in lung ([3]; Western blotting, n=4): almost completely suppressed by WCSD down to the levels in control, saline-treated mice
- microvascular leakage (IgG Heavy Chain remaining in the tissue after perfusion) in lung ([3]; Western blotting, n=4): almost completely suppressed by WCSD down to the levels in control, saline-treated mice
- myofibroblast markers (HSP47, ASMA) in lung ([3]; Western blotting, n=4): almost completely suppressed by WCSD down to the levels in control, saline-treated mice
- survival ([3]; bleomycin pump, daily i.p. WCSD): outstanding beneficial effect on survival
- lung fibrosis and inflammatory cell infiltration (histology) ([3]; bleomycin, treatment also delayed until day 8): suppressed by WCSD even when treatment is delayed until day 8

Compound: COC(=O)c1ccc2c(c1)NC(=O)/C2=C(\Nc1ccc(N(C)C(=O)CN2CCN(C)CC2)cc1)c1ccccc1 [nintedanib]
- inhibition of PDGFRα [4]: inhibits
- inhibition of PDGFRβ [5]: inhibits
- inhibition of TGFβR1 [6]: inhibit
- inhibition of cMet [7]: has no effect
- inhibition of PKCε [8]: has no effect
- inhibition of PKCα [9]: has no effect
- inhibition of VEGFR3 [10]: inhibits
- inhibition of VEGFR1 [11]: inhibits
- inhibition of VEGFR2 [12]: inhibit
- inhibition of Src [13]: inhibit
